{
  "source": "paper PMC4297247",
  "about": "(Molecular cancer therapeutics, 2014)",
  "key": {"[1]": {"system": "cell lines of the LAR subtype", "settings": "cited from earlier work"}, "basal-like TNBCs": {"system": "basal-like TNBCs", "settings": "cell lines and clinically; cited from earlier work"}, "[2]": {"system": "mesenchymal-like TNBC cell lines", "settings": "cited from earlier work"}, "[3]": {"system": "mesenchymal-like cell lines, BT549, Hs578T, and MDA-MB231", "assay": "Kinase inhibitor screen, CellTiter Glo cell viability, one week", "format": "cell-based, human", "settings": "did not reach statistical significance (p = 0.12)"}},
  "data": [
    {"smiles": "CC(O)(CS(=O)(=O)c1ccc(F)cc1)C(=O)Nc1ccc(C#N)c(C(F)(F)F)c1", "note": "(stereo not shown) [bicalutamide]", "values": [
      {"measurement": "selective toxicity by TNBC subtype", "setting": "[1]", "value": "selectively toxic to cell lines of the LAR subtype"}
    ]},
    {"smiles": "N.N.[Cl][Pt][Cl]", "note": "[cisplatin]", "values": [
      {"measurement": "toxicity by TNBC subtype", "setting": "basal-like TNBCs", "value": "more toxic to basal-like TNBCs"}
    ]},
    {"smiles": "Cc1nc(Nc2ncc(C(=O)Nc3c(C)cccc3Cl)s2)cc(N2CCN(CCO)CC2)n1", "note": "[dasatinib]", "values": [
      {"measurement": "preferential toxicity by TNBC subtype", "setting": "[2]", "value": "preferential toxicity for mesenchymal-like TNBC cell lines"},
      {"measurement": "sensitivity compared to cells of other TNBC subtypes", "setting": "[3]", "value": "more sensitive to dasatinib than cells of other TNBC subtypes"}
    ]}
  ]
}
